Where two headings read alike, the source gives them in different places.
Key:
Type in all cases: cell-based
SK-MEL-28 = test: Human tumor cell line growth assay (SRB); conditions: Homo sapiens; Melanoma, SK-MEL-28, 48 h
[1] = Human tumor cell line growth assay (SRB); conditions: human, SK-MEL-28 cells (melanoma), SK-MEL-28, 48 h, read-out: LC50
EKVX = test: Human tumor cell line growth assay (SRB); conditions: Homo sapiens, NSCLC, 48 h
[2] = Human tumor cell line growth assay (SRB); conditions: human, EKVX cells (NSCLC), read-out: LC50
NCI-H226 = test: Human tumor cell line growth assay (SRB); conditions: Homo sapiens; NSCLC, NCI-H226, 48 h
[3] = Human tumor cell line growth assay (SRB); conditions: human, NCI-H226 cells (NSCLC), NCI-H226, 48 h, read-out: LC50
HOP-62 = test: Human tumor cell line growth assay (SRB); conditions: Homo sapiens; NSCLC, HOP-62, 48 h
[4] = Human tumor cell line growth assay (SRB); conditions: human, SF-539 cells (CNS), SF-539, 48 h, read-out: LC50
SF-539 = test: Human tumor cell line growth assay (SRB); conditions: Homo sapiens; CNS, SF-539, 48 h
SN12C = test: Human tumor cell line growth assay (SRB); conditions: Renal, 48 h; for CC50: read-out: LC50 (the source's name)
KM12 = test: Human tumor cell line growth assay (SRB); conditions: Homo sapiens; Colon, KM12, 48 h
[5] = Human tumor cell line growth assay (SRB); conditions: human, KM12 cells (colon), KM12, 48 h, read-out: LC50
MDA-MB-435 = test: Human tumor cell line growth assay (SRB); conditions: Homo sapiens; Melanoma, MDA-MB-435, 48 h
[6] = Human tumor cell line growth assay (SRB); conditions: human, MDA-MB-435 cells (melanoma), MDA-MB-435, 48 h, read-out: LC50
[7] = Human tumor cell line growth assay (SRB); conditions: human, HCT-15 cells (colon), HCT-15, 48 h
HCT-15 = test: Human tumor cell line growth assay (SRB); conditions: Homo sapiens; Colon, HCT-15, 48 h
DU-145 = test: Human tumor cell line growth assay (SRB); conditions: Prostate, DU-145, 48 h; for CC50: read-out: LC50 (the source's name)
ACHN = test: Human tumor cell line growth assay (SRB); conditions: Renal, 48 h; for CC50: read-out: LC50 (the source's name)
SK-MEL-2 = test: Human tumor cell line growth assay (SRB); conditions: Homo sapiens; Melanoma, SK-MEL-2, 48 h
[8] = Human tumor cell line growth assay (SRB); conditions: human, SK-MEL-2 cells (melanoma), SK-MEL-2, 48 h, read-out: LC50
CAKI-1 = test: Human tumor cell line growth assay (SRB); conditions: Renal, CAKI-1, 48 h; for CC50: read-out: LC50 (the source's name)
SW-620 = test: Human tumor cell line growth assay (SRB); conditions: Homo sapiens; Colon, SW-620, 48 h
[9] = Human tumor cell line growth assay (SRB); conditions: human, SW-620 cells (colon), SW-620, 48 h
SK-OV-3 = test: Human tumor cell line growth assay (SRB); conditions: Ovarian, SK-OV-3, 48 h; for CC50: read-out: LC50 (the source's name)
[10] = Human tumor cell line growth assay (SRB); conditions: human, NCI-H460 cells (NSCLC), NCI-H460, 48 h, read-out: LC50
NCI-H460 = test: Human tumor cell line growth assay (SRB); conditions: Homo sapiens; NSCLC, NCI-H460, 48 h
MCF7 = test: Human tumor cell line growth assay (SRB); conditions: Breast, MCF7, 48 h; for CC50: read-out: LC50 (the source's name)
UACC-257 = test: Human tumor cell line growth assay (SRB); conditions: Homo sapiens; Melanoma, UACC-257, 48 h
[11] = Human tumor cell line growth assay (SRB); conditions: human, UACC-257 cells (melanoma), UACC-257, 48 h, read-out: LC50
HT29 = test: Human tumor cell line growth assay (SRB); conditions: Homo sapiens, HT-29; Colon, HT29, 48 h
SNB-75 = test: Human tumor cell line growth assay (SRB); conditions: Homo sapiens; CNS, SNB-75, 48 h
[12] = Human tumor cell line growth assay (SRB); conditions: human, SNB-75 cells (CNS), SNB-75, 48 h
OVCAR-8 = test: Human tumor cell line growth assay (SRB); conditions: Ovarian, OVCAR-8, 48 h; for CC50: read-out: LC50 (the source's name)
NCI-H522 = test: Human tumor cell line growth assay (SRB); conditions: Homo sapiens; NSCLC, NCI-H522, 48 h
[13] = Human tumor cell line growth assay (SRB); conditions: human, NCI-H522 cells (NSCLC), NCI-H522, 48 h
LOX IMVI = test: Human tumor cell line growth assay (SRB); conditions: Homo sapiens, Melanoma, 48 h
[14] = Human tumor cell line growth assay (SRB); conditions: human, LOX IMVI cells (melanoma), read-out: LC50

Work on `Cc1cc2nc3c4cc([N+](=O)[O-])ccc4n(CCN(C)C)c3nc2cc1C` [JBA-185, 2-(2,3-dimethyl-9-nitro-6H-indolo[2,3-b]quinoxalin-6-yl)-N,N-dimethylethanamine] yielded a GI50 (SK-MEL-28) of 807 nM, a CC50 at 48 h [1] of 5650 nM and a GI50 (EKVX) of 477 nM. For the same compound, the CC50 at 48 h [2] was > 100000 nM, the GI50 (NCI-H226) was 521 nM and the CC50 at 48 h [3] was > 100000 nM. The GI50 (HOP-62) was 507 nM, the CC50 at 48 h [4] was 18100 nM and the GI50 (SF-539) was 387 nM. The GI50 (SN12C) was 479 nM, the CC50 (SN12C) was > 100000 nM and the GI50 (KM12) was 567 nM. For the same compound, the CC50 at 48 h [5] was > 100000 nM, the GI50 (MDA-MB-435) was 541 nM and the CC50 at 48 h [6] was 4500 nM. The LC50 (concentration killing 50% of cells) at 48 h [7] was > 100000 nM, the GI50 (HCT-15) was 349 nM and the GI50 (DU-145) was 540 nM. For the same compound, the CC50 (DU-145) was > 100000 nM, the GI50 (ACHN) was 316 nM and the CC50 (ACHN) was 2460 nM. The GI50 (SK-MEL-2) was 1040 nM, the CC50 at 48 h [8] was 9020 nM and the GI50 (CAKI-1) was 251 nM. For the same compound, the CC50 (CAKI-1) was 7480 nM, the GI50 (SW-620) was 302 nM and the LC50 (50% lethal concentration) at 48 h [9] was > 100000 nM. For the same compound, the GI50 (SK-OV-3) was 704 nM, the CC50 (SK-OV-3) was > 100000 nM and the CC50 at 48 h [10] was 26700 nM. For the same compound, the GI50 (NCI-H460) was 350 nM, the GI50 (MCF7) was 356 nM and the CC50 (MCF7) was > 100000 nM. It also gave a GI50 (UACC-257) of 732 nM, a CC50 at 48 h [11] of 34400 nM and a GI50 (HT29) of 375 nM. The GI50 (SNB-75) was 447 nM, the LC50 (concentration killing 50% of cells) at 48 h [12] was 5450 nM and the GI50 (OVCAR-8) was 550 nM. For the same compound, the CC50 (OVCAR-8) was > 100000 nM, the GI50 (NCI-H522) was 595 nM and the LC50 at 48 h [13] was > 100000 nM.
Work on `Cc1cc2nc3c4ccccc4n(CCN(C)C)c3nc2cc1C` [B220, 2-(2,3-dimethyl-6H-indolo [2,3-b]quinoxalin-6-yl)-N,N-dimethylethanamine, reference compound] yielded a GI50 (SK-MEL-28) of 2090 nM, a CC50 at 48 h [1] of 9450 nM and a GI50 (EKVX) of 2230 nM. For the same compound, the CC50 at 48 h [2] was 83900 nM, the GI50 (NCI-H226) was 2010 nM and the CC50 at 48 h [3] was > 100000 nM. The GI50 (HOP-62) was 1110 nM, the CC50 at 48 h [4] was 15000 nM and the GI50 (SF-539) was 1830 nM. The GI50 (SN12C) was 1080 nM, the CC50 (SN12C) was > 100000 nM and the GI50 (KM12) was 1930 nM. For the same compound, the CC50 at 48 h [5] was 38600 nM, the GI50 (MDA-MB-435) was 1610 nM and the CC50 at 48 h [6] was 7490 nM. The LC50 (concentration killing 50% of cells) at 48 h [7] was > 100000 nM, the GI50 (HCT-15) was 1770 nM and the GI50 (DU-145) was 2070 nM. The CC50 (DU-145) was 55600 nM, the GI50 (ACHN) was 555 nM and the CC50 (ACHN) was 42200 nM. It also gave a GI50 (SK-MEL-2) of 1900 nM, a CC50 at 48 h [8] of 7490 nM and a GI50 (CAKI-1) of 982 nM. The CC50 (CAKI-1) was > 100000 nM, the GI50 (SW-620) was 540 nM and the LC50 (50% lethal concentration) at 48 h [9] was 35000 nM. For the same compound, the GI50 (SK-OV-3) was 3100 nM, the CC50 (SK-OV-3) was > 100000 nM and the CC50 at 48 h [10] was 37300 nM. The GI50 (NCI-H460) was 709 nM, the GI50 (MCF7) was 1410 nM and the CC50 (MCF7) was 34800 nM. For the same compound, the GI50 (UACC-257) was 1940 nM, the CC50 at 48 h [11] was 5990 nM and the GI50 (LOX IMVI) was 748 nM. It also gave a CC50 at 48 h [14] of 18900 nM, a GI50 (HT29) of 760 nM and a GI50 (SNB-75) of 1280 nM. The LC50 (concentration killing 50% of cells) at 48 h [12] was 80200 nM, the GI50 (OVCAR-8) was 1160 nM and the CC50 (OVCAR-8) was 87200 nM. For the same compound, the GI50 (NCI-H522) was 673 nM and the LC50 at 48 h [13] was > 100000 nM.
`Cc1cc2nc3c4cc(O)ccc4n(CCN(C)C)c3nc2cc1C` [JBD-139, 6-(2-(dimethylamino)ethyl)-2,3-dimethyl-6H-indolo [2,3-b]quinoxalin-9-ol] showed a GI50 (SK-MEL-28) of 1500 nM, a GI50 (EKVX) of 1100 nM and a GI50 (NCI-H226) of 1340 nM. The CC50 at 48 h [3] was 19500 nM, the GI50 (HOP-62) was 569 nM and the GI50 (SF-539) was 422 nM. For the same compound, the GI50 (SN12C) was 397 nM, the CC50 (SN12C) was > 100000 nM and the GI50 (KM12) was 512 nM. The GI50 (MDA-MB-435) was 529 nM, the LC50 (concentration killing 50% of cells) at 48 h [7] was > 100000 nM and the GI50 (HCT-15) was 405 nM. For the same compound, the GI50 (DU-145) was 598 nM, the CC50 (DU-145) was > 100000 nM and the GI50 (ACHN) was 307 nM. It also gave a GI50 (SK-MEL-2) of 1100 nM, a GI50 (CAKI-1) of 259 nM and a CC50 (CAKI-1) of 5310 nM. For the same compound, the GI50 (SW-620) was 320 nM, the GI50 (SK-OV-3) was 1160 nM and the CC50 (SK-OV-3) was > 100000 nM. The GI50 (NCI-H460) was 348 nM, the GI50 (MCF7) was 351 nM and the CC50 (MCF7) was > 100000 nM. For the same compound, the GI50 (UACC-257) was 597 nM, the GI50 (LOX IMVI) was 338 nM and the GI50 (HT29) was 379 nM. The GI50 (SNB-75) was 214 nM, the LC50 (concentration killing 50% of cells) at 48 h [12] was > 100000 nM and the GI50 (OVCAR-8) was 412 nM. For the same compound, the CC50 (OVCAR-8) was > 100000 nM, the GI50 (NCI-H522) was 390 nM and the LC50 at 48 h [13] was > 100000 nM.
